For this assay, the target named is T1, SARS-CoV-2 Papain-like protease (PLpro) (Severe acute respiratory syndrome coronavirus 2, UniProt P0DTD1).
T1 construct: gene rep; natural full-length PLpro (nsp3) made in infected VeroE6 cells, crude lysate; mature chain nsp3 of replicase polyprotein 1a / 1ab
Description: fluorogenic Pun74-R110 peptide cleavage in lysates of infected, inhibitor-pretreated VeroE6 cells. Particulars: unreliable (tentative; one experiment in duplicate); inhibitor given to live cells 2 h before infection (0.01 MOI, 24 h, 37 °C); PLpro read in lysate with 50 nM Pun74-R110, 5 mM DTT, pH 7.4, room temp. In kind it is biochemical.

In publication PMC11670956, “A cell-based Papain-like Protease (PLpro) activity assay for rapid detection of active SARS-CoV-2 infections and antivirals” (PLOS ONE, 2024) one finds IC50 data, which are given here for one compound.

A word on the IC50: it is the concentration that gives 50% inhibition. In the case of `Cc1ccc(N)cc1C(=O)N[C@H](C)c1cccc2ccccc12` [GRL0617], the IC50 was 38.3 µM.
